Test [1] relates to THP-1 (AML) cells. Description: LSD1 CD11b cellular assay (flow cytometry). The note with it: Homo sapiens, THP-1, 96 h; CD11b expressing cells, 4 days incubation. The format is cell-based. The method, then:
To analyze LSD1 inhibitor efficacy in cells, a CD11b flow cytometry assay was performed. LSD1 inhibition induces CD11b expression in THP-1 (AML) cells which can be measured by flow cytometry. […] LSD1 test compounds were serially diluted in DMSO. The dilutions were added to each well accordingly to a final concentration of 0.2% DMSO. The cells were incubated at 37 degrees Celsius in 5% CO2 for 4 days. 250 μL of each well was transferred to a well in a 96 well round bottom plate. The plate was centrifuged at 1200 rpm at 4 degrees Celsius in a Beckman Coulter Alegra 6KR centrifuge for 5 minutes. The media was removed leaving the cells at the bottom of the wells. The cells were washed in 100 μL cold HBSS (Hank's Balanced Salt Solution) plus 2% BSA (Bovine Serum Albumin) solution and centrifuged at 1200 rpm at 4 degrees Celsius for 5 minutes. The wash was removed. […] The cells were centrifuged and washed two times in 100 μL HBSS plus 2% BSA. After the final spin the cells were resuspended in 100 μL HBSS plus 2% BSA containing 1 ug/mL DAPI (4′,6-diamidino-2-phenylindole). The cells were then analyzed by flow cytometry in a BD FACSAria machine. Cells were analyzed for CD11b expression. The percent of CD11b expressing cells for each inhibitor concentration was used to determine an IC50 curve for each compound analyzed.
(In general: A flow cytometer gives signals particle by particle.)

The target in test [2] is full-length human LSD1 (Homo sapiens (Human), UniProt O60341). Description: In vitro enzyme inhibition assay LSD-1 (TR-FRET). Format: biochemical. Conditions: H3K4me1-biotin peptide. The method, then:
This assay determines the ability of a test compound to inhibit LSD1 demethylase activity.
The enzymatic assay of LSD1 activity is based on Time Resolved-Fluorescence Resonance Energy Transfer (TR-FRET) detection.
Plates were read by EnVision Multilabel Reader in TR-FRET mode (excitation at 320 nm, emission at 615 nm and 665 nm) after 1 hour incubation at room temperature.
The ability of the compounds disclosed herein to inhibit LSD1 activity was quantified and the respective IC50 value was determined.
(TR-FRET usually uses a lanthanide donor and a delayed reading to cut background.)

The values that follow come from patent US11028066B2, “Inhibitors of lysine specific demethylase-1” (CELGENE QUANTICEL RESEARCH, INC., priority 2014, dated 2021).

Usually IC50 stands for the point on the concentration scale where inhibition reaches its midpoint. Turning to `COc1ccc(-c2c(-c3ccc(C#N)cc3)nc(N3CCC(N)CC3)c(=O)n2C)cc1` [Example 30, 4-[6-(4-aminopiperidin-1-yl)-3-(4-methoxyphenyl)-4-methyl-5-oxo-4,5-dihydropyrazin-2-yl]benzonitrile], the IC50 in test [1] and in test [2] was less than 100 nM in each case.

In the case of `COc1ccc(-c2c(-c3ccc(C#N)cc3)nc(NC[C@@H]3CCNC3)c(=O)n2C)cc1` [Example 32, 4-[3-(4-methoxyphenyl)-4-methyl-5-oxo-6-{[(3R)-pyrrolidin-3-ylmethyl]amino}-4,5-dihydropyrazin-2-yl]benzonitrile], the results for the IC50 in test [1] and in test [2] were 100 to 1000 nM and less than 100 nM, respectively.

For the compound `Cn1c(-c2ccc(C3CC3)cc2)c(-c2ccc(C#N)cc2)nc(NC[C@H]2CCNC2)c1=O` [Example 34, 4-[3-(4-cyclopropylphenyl)-4-methyl-5-oxo-6-{[(3S)-pyrrolidin-3-ylmethyl]amino}-4,5-dihydropyrazin-2-yl]benzonitrile], the IC50 in test [1] was 100 to 1000 nM; in test [2], less than 100 nM.

As to `Cn1c(-c2ccc(C3CC3)cc2)c(-c2ccc(C#N)cc2)nc(NC[C@@H]2CCNC2)c1=O` [Example 35, 4-[3-(4-cyclopropylphenyl)-4-methyl-5-oxo-6-{[(3R)-pyrrolidin-3-ylmethyl]amino}-4,5-dihydropyrazin-2-yl]benzonitrile], the IC50 in test [1] was 100 to 1000 nM; in test [2] it was less than 100 nM.

With `Cc1ccc(-c2c(-c3ccc(C#N)cc3)nc(N3CCC(N)CC3)c(=O)n2CCO)cc1` [Example 37, 4-[6-(4-amino-piperidin-1-yl)-4-(2-hydroxy-ethyl)-5-oxo-3-p-tolyl-4,5-dihydro-pyrazin-2-yl]-benzonitrile], the concentration for half-maximal inhibition (IC50) in test [1] and in test [2] was less than 100 nM in each case.

Take `N#Cc1ccc(-c2nc(N3CCC(N)CC3)c(=O)n(CCO)c2-c2ccc(C3CC3)cc2)cc1` [Example 38, 4-[6-(4-amino-piperidin-1-yl)-3-(4-cyclopropyl-phenyl)-4-(2-hydroxy-ethyl)-5-oxo-4,5-dihydro-pyrazin-2-yl]-benzonitrile]: the IC50 in test [1] and in test [2] was less than 100 nM in each case.

As to `COCCCn1c(-c2ccc(C)cc2)c(-c2ccc(C#N)cc2)nc(N2CCC(N)CC2)c1=O` [Example 39, 4-[6-(4-amino-piperidin-1-yl)-4-(3-methoxy-propyl)-5-oxo-3-p-tolyl-4,5-dihydro-pyrazin-2-yl]-benzonitrile], the half-maximal inhibitory concentration (IC50) in test [1] and in test [2] was less than 100 nM throughout.

`COCCn1c(-c2ccc(C)cc2)c(-c2ccc(C#N)c(F)c2)nc(N2CCC(N)CC2)c1=O` [Example 41, 4-[6-(4-amino-piperidin-1-yl)-4-(2-methoxy-ethyl)-5-oxo-3-p-tolyl-4,5-dihydro-pyrazin-2-yl]-2-fluoro-benzonitrile]: the concentration for half-maximal inhibition (IC50) in test [1] and in test [2] was less than 100 nM each time.

`COCCn1c(-c2ccc(C)cc2)c(-c2ccc(C#N)c(F)c2)nc(NC[C@H]2CCNC2)c1=O` [Example 43, 4-(6-{[((3S)-pyrrolidin-3-yl)methyl]amino}-4-(2-methoxyethyl)-3-(4-methylphenyl)-5-oxo(4-hydropyrazin-2-yl))-2-fluorobenzenecarbonitrile]: the IC50 in test [1] and in test [2] was less than 100 nM each time.

Turning to `COCCCn1c(-c2ccc(C)cc2)c(-c2ccc(C#N)c(F)c2)nc(N2CCC(N)CC2)c1=O` [Example 45, 4-[6-(4-aminopiperidyl)-4-(3-methoxypropyl)-3-(4-methylphenyl)-5-oxo(4-hydropyrazin-2-yl)]-2-fluorobenzenecarbonitrile], the IC50 in test [1] and in test [2] was less than 100 nM in each case.

For the compound `Cc1ccc(-c2c(-c3ccc(C#N)cc3)nc(N3CCC(N)CC3)c(=O)n2C)cn1` [Example 49, 4-[6-(4-amino-piperidin-1-yl)-4-methyl-3-(6-methyl-pyridin-3-yl)-5-oxo-4,5-dihydro-pyrazin-2-yl]-benzonitrile], the half-maximal inhibitory concentration (IC50) in test [1] and in test [2] was less than 100 nM in each case.
